Ki, EC50 and Efficacy data for 13 molecules are collected here from ChEMBL document CHEMBL1149860, “Synthesis and neuropharmacological characterization of 2-O-substituted apomorphines” (Bioorg Med Chem, 2008).

Test [1] has as its target T1, D(2) dopamine receptor (Rattus norvegicus, UniProt P61169). Put plainly: Displacement of [3H]raclopride from rat dopamine D2(short) receptor expressed in CHOK1 cells. The test is classed as cell-based, CHO-K1. On the technique in general: In a radioligand displacement assay an active substance lowers the binding of a labelled ligand.
Test [2] concerns the target T1, D(2) dopamine receptor. Kind of test: Agonist activity at rat dopamine D2(short) receptor expressed in CHOK1 cells by [35S]GTPgammaS binding assay. The test is classed as functional, cell-based, CHO-K1. Background: GTPγS resists hydrolysis and so accumulates on activated G proteins.
The target in test [3] is D(2) dopamine receptor (Rattus norvegicus) (UniProt P61169). Put plainly: Agonist activity at rat dopamine D2(short) receptor expressed in CHOK1 cells by [35S]GTPgammaS binding assay relative to quinpirole. The format is functional, cell-based. The following applies: CHO-K1.
The target in a further test is D(1A) dopamine receptor (Mus musculus, UniProt Q61616). Put plainly: Displacement of [3H]SCH23390 from dopamine D1 receptor in mouse Ltk- fibroblast cells. The format is cell-based.
Test [4] addresses D(2) dopamine receptor (Homo sapiens, UniProt P14416). Kind of test: biochemical.
Description: Displacement of [3H]raclopride from human cloned dopamine D2 receptor expressed in CHO cell membrane
Test [5] has as its target T1, D(2) dopamine receptor. Kind of test: Displacement of [3H]raclopride from dopamine D2 receptor in rat striatal membrane. The format is cell membranes, Striatum.

Molecules are shown by their SMILES.

Chain of D(1A) dopamine receptor (Q61616 whole entry): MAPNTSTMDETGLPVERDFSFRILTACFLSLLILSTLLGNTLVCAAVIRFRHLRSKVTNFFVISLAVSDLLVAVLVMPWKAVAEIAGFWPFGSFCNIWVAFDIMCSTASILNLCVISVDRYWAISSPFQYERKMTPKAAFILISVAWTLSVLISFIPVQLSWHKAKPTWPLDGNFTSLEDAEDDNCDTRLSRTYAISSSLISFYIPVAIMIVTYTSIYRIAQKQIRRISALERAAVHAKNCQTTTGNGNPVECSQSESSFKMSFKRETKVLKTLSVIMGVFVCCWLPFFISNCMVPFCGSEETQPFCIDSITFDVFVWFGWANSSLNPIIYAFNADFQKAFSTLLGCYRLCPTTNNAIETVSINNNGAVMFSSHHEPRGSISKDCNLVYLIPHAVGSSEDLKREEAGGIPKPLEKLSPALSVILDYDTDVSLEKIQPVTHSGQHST
T1 sequence (P61169 whole entry): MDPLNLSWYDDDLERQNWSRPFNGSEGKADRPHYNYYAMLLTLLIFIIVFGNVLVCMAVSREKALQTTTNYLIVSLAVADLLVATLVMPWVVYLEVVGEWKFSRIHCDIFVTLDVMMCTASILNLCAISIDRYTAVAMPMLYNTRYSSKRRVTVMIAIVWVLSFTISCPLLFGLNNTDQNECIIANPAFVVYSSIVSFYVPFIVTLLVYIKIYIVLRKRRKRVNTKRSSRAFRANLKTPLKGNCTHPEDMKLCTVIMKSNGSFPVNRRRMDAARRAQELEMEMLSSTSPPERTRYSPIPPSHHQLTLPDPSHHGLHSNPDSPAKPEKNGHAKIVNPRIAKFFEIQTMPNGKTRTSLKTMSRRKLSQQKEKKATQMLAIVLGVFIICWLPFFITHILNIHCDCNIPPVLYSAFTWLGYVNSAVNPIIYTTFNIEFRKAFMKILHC
Chain of D(2) dopamine receptor (Rattus norvegicus) (P61169 whole entry): as above
Chain of D(2) dopamine receptor (Homo sapiens, UniProt P14416) (P14416 whole entry): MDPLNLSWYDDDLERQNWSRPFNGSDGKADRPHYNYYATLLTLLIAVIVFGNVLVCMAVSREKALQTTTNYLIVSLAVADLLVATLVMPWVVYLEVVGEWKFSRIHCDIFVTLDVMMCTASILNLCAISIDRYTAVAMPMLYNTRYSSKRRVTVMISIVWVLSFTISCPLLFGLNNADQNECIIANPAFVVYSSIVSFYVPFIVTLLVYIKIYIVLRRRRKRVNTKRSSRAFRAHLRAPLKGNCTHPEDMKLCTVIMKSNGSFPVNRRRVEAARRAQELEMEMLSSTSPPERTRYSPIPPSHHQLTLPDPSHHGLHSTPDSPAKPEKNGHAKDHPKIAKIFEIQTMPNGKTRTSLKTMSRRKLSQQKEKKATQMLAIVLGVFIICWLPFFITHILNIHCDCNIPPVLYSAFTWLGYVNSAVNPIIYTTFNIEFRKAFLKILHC

As usually defined, the Ki is a dissociation constant, usually derived from enzyme kinetics or from competition with a known ligand. The EC50 is the concentration giving half of the maximal effect. Turning to `CN1CCc2cc(OCCOCCO)cc3c2[C@H]1Cc1ccc(O)c(O)c1-3`, the figures for the Ki at D(2) dopamine receptor [1] and on D(1A) dopamine receptor were 587 nM and 7600 nM, respectively. Moreover, the EC50 at D(2) dopamine receptor [2] was 939 nM. The same molecule came in with an Efficacy in test [3] of 58%.

Take `CN1CCc2cc(OCCOc3cc4c5c(c3)-c3c(ccc(O)c3O)C[C@H]5N(C)CC4)cc3c2[C@H]1Cc1ccc(O)c(O)c1-3`: the Ki on D(2) dopamine receptor [1] turned out to be 345 nM; on D(1A) dopamine receptor, 5200 nM. At D(2) dopamine receptor [2], this molecule returned an EC50 of 308 nM. Further, in test [3], the Efficacy is 18%.

Take `CN1CCc2cc(OCCO)cc3c2[C@H]1Cc1ccc(O)c(O)c1-3`: the Ki is 347 nM on D(2) dopamine receptor [1] and 5300 nM on D(1A) dopamine receptor. Further, the EC50 at D(2) dopamine receptor [2] was 315 nM. The molecule further came in with an Efficacy in test [3] of 19%.

Take `CCOc1cc2c3c(c1)-c1c(ccc(O)c1O)C[C@H]3N(C)CC2`: the Ki was found to be 44 nM on D(2) dopamine receptor [1] and 2900 nM at D(1A) dopamine receptor. For the same molecule, the EC50 at D(2) dopamine receptor [2] is 55 nM. This molecule came in with an Efficacy in test [3] of 70%.

Regarding `CN1CCc2cc(OCCOCCOc3cc4c5c(c3)-c3c(ccc(O)c3O)C[C@H]5N(C)CC4)cc3c2[C@H]1Cc1ccc(O)c(O)c1-3`, the Ki on D(2) dopamine receptor [1] is 17200 nM; at D(1A) dopamine receptor, over 10000 nM. At D(2) dopamine receptor [2], this molecule displayed an EC50 of over 10000 nM.

With `CN1CCc2cc(-c3ccc(O)cc3)cc3c2[C@H]1Cc1ccc(O)c(O)c1-3`, on D(2) dopamine receptor [4], the affinity corresponds to a Ki of 3.8 nM.

Take `CSc1cc2c3c(c1)-c1c(ccc(O)c1O)C[C@H]3N(C)CC2`: the Ki on D(2) dopamine receptor [5] stood at 54.7 nM.

Regarding `CCCOc1cc2c3c(c1)-c1c(ccc(O)c1O)C[C@H]3N(C)CC2`, the Ki on D(2) dopamine receptor [1] amounted to 75 nM; at D(1A) dopamine receptor, 3500 nM. This molecule also gave an EC50 at D(2) dopamine receptor [2] of 76 nM. This molecule also displayed an Efficacy in test [3] of 71%.

Molecule `CN1CCc2cc(F)cc3c2[C@H]1Cc1ccc(O)c(O)c1-3` registered a Ki on D(2) dopamine receptor [5] of 0.43 nM.

Regarding `CCCCOc1cc2c3c(c1)-c1c(ccc(O)c1O)C[C@H]3N(C)CC2`, the Ki at D(2) dopamine receptor [1] was 60 nM; on D(1A) dopamine receptor it was 2100 nM. A half-maximal response at D(2) dopamine receptor [2] (EC50) required 58 nM. The Efficacy in test [3] came to 57%.

As for `CN1CCc2cc(N)cc3c2[C@H]1Cc1ccc(O)c(O)c1-3`, the affinity on D(2) dopamine receptor [5], expressed as Ki, was 19.9 nM.

For the molecule `COc1cc2c3c(c1)-c1c(ccc(O)c1O)CC3N(C)CC2` (stereo unspecified), the values for the Ki on D(2) dopamine receptor [1] and at D(1A) dopamine receptor were 74 nM and 2600 nM, respectively. Moreover, a half-maximal response at D(2) dopamine receptor [2] (EC50) required 114 nM. For the same molecule, the Efficacy in test [3] is 66%.

At D(2) dopamine receptor [4], `CN1CCc2cc(-c3ccccc3)cc3c2[C@H]1Cc1ccc(O)c(O)c1-3` registered a Ki of 88 nM. In other words, the double-digit nanomolar range.
